Among the data in US20170121322A1, “BET-PROTEIN INHIBITING 3,4-DIHYDROPYRIDO[2,3-B]PYRAZINONES WITH META-SUBSTITUTED AROMATIC AMINO- OR ETHER GROUPS” (Bayer Pharma Aktiengesellschaft, priority 2014, published 2017) are IC50 values, retold here.

Assay [1] addresses T1, BRD4 bromo domain 1 [BRD4(1)] (Homo sapiens, UniProt O60885).
T1 construct: N-terminally His6-tagged BRD4(1) (amino acids 67-152); made in house; host or cells: E. coli
In words: BRD4(1)/acetylated peptide H4 TR-FRET binding assay. Conditions: His6-BRD4(1) (aa 67-152) vs acetylated histone H4 peptide. The source says: To assess the BRD4(1) binding strength of the substances described in this application, the ability thereof to inhibit the interaction between BRD4(1) and acetylated histone H4 in a dose-dependent manner was quantified.
For this purpose, a time-resolved fluorescence resonance energy transfer (TR-FRET) assay was used, which measures the binding between N-terminally His6-tagged BRD4(1) (amino acids 67-152) and a synthetic acetylated histone H4 (Ac-H4) peptide with sequence GRGK(Ac)GGK(Ac)GLGK(Ac)GGAK(Ac)RHGSGSK-biotin. The recombinant BRD4(1) protein produced in-house according to Filippakopoulos et al., Cell, 2012, 149:214-231 was expressed in E. coli and purified by means of (Ni-NTA) affinity and (Sephadex G-75) size exclusion chromatography. The Ac-H4 peptide can be purchased, for example, from Biosyntan (Berlin, Germany).
In the assay, typically 11 different concentrations of each substance (0.1 nM, 0.33 nM, 1.1 nM, 3.8 nM, 13 nM, 44 nM, 0.15 μM, 0.51 μM, 1.7 μM, 5.9 μM and 20 μM) were analysed as duplicates on the same microtitre plate. For this purpose, 100-fold concentrated solutions in DMSO were prepared by serial dilutions (1:3.4) of a 2 mM stock solution into a clear, 384-well microtitre plate (Greiner Bio-One, Frickenhausen, Germany). From this, 50 nl were transferred into a black test plate (Greiner Bio-One, Frickenhausen, Germany). The test was started by the addition of 2 μl of a 2.5-fold concentrated BRD4(1) solution (final concentration typically 10 nM in the 5 μl of reaction volume) in aqueous assay buffer [50 mM HEPES pH 7.5, 50 mM sodium chloride (NaCl), 0.25 mM CHAPS and 0.05% serum albumin (BSA)] to the substances in the test plate. This was followed by a 10-minute incubation step at 22° C. for the pre-equilibration of putative complexes between BRD4(1) and the substances. Subsequently, 3 μl of a solution of 1.67 times the concentration (in assay buffer) consisting of Ac-H4 peptide (83.5 nM) and TR-FRET detection reagents [16.7 nM anti-6His-XL665 and 3.34 nM streptavidin cryptate (both from Cisbio Bioassays, Codolet, France), and 668 mM potassium fluoride (KF)] were added.
The mixture was then incubated in the dark at 22° C. for one hour and then at 4° C. for at least 3 hours and for no longer than overnight. The formation of BRD4(1)/Ac-H4 complexes was determined by the measurement of the resonance energy transfer from the streptavidin-Eu cryptate to the anti-6His-XL665 antibody present in the reaction. For this purpose, the fluorescence emission was measured at 620 nm and 665 nm after excitation at 330-350 nm in a TR-FRET measuring instrument, for example a Rubystar or Pherastar (both from BMG Lab Technologies, Offenburg, Germany) or a Viewlux (Perkin-Elmer). The ratio of the emissions at 665 nm and at 622 nm was taken as an indicator of the amount of BRD4(1)/Ac-H4 complexes formed.
The data (ratios) obtained were normalized, with 0% inhibition corresponding to the mean from the measurements for a set of controls (typically 32 data points) in which all the reagents were present. In these, in place of test substances, 50 nl of DMSO (100%) were used. Inhibition of 100% corresponded to the mean from the measurements for a set of controls (typically 32 data points) in which all the reagents except BRD4(1) were present. The IC50 was determined by regression analysis based on a 4-parameter equation (minimum, maximum, IC50, Hill; Y=Max+(Min−Max)/(1+(X/IC50)Hill).
Background: TR-FRET usually uses a lanthanide donor and a delayed reading to cut background.

In a further assay the test system is MOLM-13 cells. As to the kind of experiment: Cell proliferation assay MOLM-13, method 1 (alamarBlue). Format: cell-based. The following applies: Homo sapiens, acute myeloid leukaemia cells, 4000 cells/well, 96-well, 96 hours. Here is the method:
In accordance with the invention, the ability of the substances to inhibit cell proliferation was determined. Cell viability was determined by means of the alamarBlue® reagent (Invitrogen) in a Victor X3 Multilabel Reader (Perkin Elmer). The excitation wavelength was 530 nm and the emission wavelength […].
The MOLM-13 cells (DSMZ, ACC 554) were seeded at a concentration of 4000 cells/well in 100 μl of growth medium (RPMI1640, 10% FCS) on 96-well microtitre plates (method 1).
After overnight incubation at 37° C., the fluorescence values (CI values) were determined. Then the plates were treated with various substance dilutions (1E-5 M, 3E-6 M, 1E-6 M, 3E-7 M, 1E-7 M, 3E-8 M, 1E-8 M) and incubated at 37° C. over 96 hours (MOLM-13, B16F10, CHL-1 cells) or 120 hours (MOLP-8 cells). Subsequently, the fluorescence values were determined (CO values). For the data analysis, the CI values were subtracted from the CO values and the results were compared between cells which had been treated with various dilutions of the substance or only with buffer solution. The IC50 values (substance concentration needed for 50% inhibition of cell proliferation) were calculated therefrom.
The substances were tested in the cell lines in Table 2, which represent the indications specified by way of example: […]
For orientation: The colour change of resazurin is a common sign of viable cells or microbes.

SMILES strings stand for the structures.

As usually defined, the IC50 is the concentration that inhibits the measured activity by half. As for `CC(C)S(=O)(=O)c1cccc(Nc2ccc3c(n2)N(C2CCOCC2)[C@H](C)C(=O)N3C)c1` [Example 7, (3R)-6-{[3-(Isopropylsulphonyl)phenyl]amino}-1,3-dimethyl-4-(tetrahydro-2H-pyran-4-yl)-3,4-dihydropyrido[2,3-b]pyrazin-2(1H)-one], the IC50 amounted to 28 nM in assay [1] and 111 nM in the assay with MOLM-13 cells.
For `C[C@@H]1C(=O)N(C)c2ccc(Nc3cccc(C(F)(F)F)c3)nc2N1C1CCOCC1` [Example 43, (3R)-1,3-Dimethyl-4-(tetrahydro-2H-pyran-4-yl)-6-{[3-(trifluoromethyl)phenyl]amino}-3,4-dihydropyrido[2,3-b]pyrazin-2(1H)-one] the same measures were 321 nM and 1220 nM.
`CC(C)S(=O)(=O)c1cccc(Nc2ccc3c(n2)N(C2CCN(C)CC2)[C@H](C)C(=O)N3C)c1` [Example 19, (3R)-6-{[3-(Isopropylsulphonyl)phenyl]amino}-1,3-dimethyl-4-(1-methylpiperidin-4-yl)-3,4-dihydropyrido[2,3-b]pyrazin-2(1H)-one]: the IC50 in assay [1] turned out to be 15 nM; in the assay with MOLM-13 cells it was 13 nM.
For `CC(C)S(=O)(=O)c1ccc(OC(F)(F)F)c(Nc2ccc3c(n2)N(C2CCN(C)CC2)[C@H](C)C(=O)N3C)c1` [Example 20, (3R)-6-{[5-(Isopropylsulphonyl)-2-(trifluoromethoxy)phenyl]amino}-1,3-dimethyl-4-(1-methylpiperidin-4-yl)-3,4-dihydropyrido[2,3-b]pyrazin-2(1H)-one] the same measures were 18 nM and 19 nM.
For `C[C@@H]1C(=O)N(C)c2ccc(Nc3cccc(S(C)(=O)=O)c3)nc2N1C1CCCCCC1` [Example 5, (3R)-4-Cycloheptyl-1,3-dimethyl-6-{[3-(methylsulphonyl)phenyl]amino}-3,4-dihydropyrido[2,3-b]pyrazin-2(1H)-one] the same measures were 152 nM and 651 nM.
The corresponding values for `COc1ccc(S(C)(=O)=O)cc1Nc1ccc2c(n1)N(C(C)C)[C@H](C)C(=O)N2C` [Example 14, (3R)-4-Isopropyl-6-{[2-methoxy-5-(methylsulphonyl)phenyl]amino}-1,3-dimethyl-3,4-dihydropyrido[2,3-b]pyrazin-2(1H)-one] are 173 nM and 205 nM.
For `COc1ccc(S(=O)(=O)C(C)C)cc1Nc1ccc2c(n1)N(C1CCNCC1)[C@H](C)C(=O)N2C` [Example 26, (3R)-6-{[5-(Isopropylsulphonyl)-2-methoxyphenyl]amino}-1,3-dimethyl-4-(piperidin-4-yl)-3,4-dihydropyrido[2,3-b]pyrazin-2(1H)-one], the IC50 in assay [1] amounted to 19 nM; in the assay with MOLM-13 cells, 10 nM.
As for `COc1ccc(S(=O)(=O)C2CC2)cc1Nc1ccc2c(n1)N(C1CCOCC1)[C@H](C)C(=O)N2C` [Example 8, (3R)-6-{[5-(Cyclopropylsulphonyl)-2-methoxyphenyl]amino}-1,3-dimethyl-4-(tetrahydro-2H-pyran-4-yl)-3,4-dihydropyrido[2,3-b]pyrazin-2(1H)-one], the IC50 was determined as 23 nM in assay [1] and 24 nM in the assay with MOLM-13 cells.
For `Cc1ccc(S(C)(=O)=O)cc1Nc1ccc2c(n1)N(C1CCOCC1)[C@H](C)C(=O)N2C` [Example 2, (3R)-1,3-Dimethyl-6-{[2-methyl-5-(methylsulphonyl)phenyl]amino}-4-(tetrahydro-2H-pyran-4-yl)-3,4-dihydropyrido[2,3-b]pyrazin-2(1H)-one] the same measures were 83 nM and 238 nM.
For the compound `COc1ccc(S(=O)(=O)C(C)C)cc1Nc1ccc2c(n1)N(C1CCN(CC(F)F)CC1)[C@H](C)C(=O)N2C` [Example 29, (3R)-4-[1-(2,2-Difluoroethyl)piperidin-4-yl]-6-{[5-(isopropylsulphonyl)-2-methoxyphenyl]amino}-1,3-dimethyl-3,4-dihydropyrido[2,3-b]pyrazin-2(1H)-one], the IC50 in assay [1] is 24 nM.
